Results reported in US20230183218A1, “CONDENSED SUBSTITUTED HYDROPYRROLES AS ANTAGONISTS OF THE MUSCARINIC ACETYLCHOLINE RECEPTOR M4” (Vanderbilt University, priority 2020, published 2023).
pIC50: −log10 of the molar value.

Experiments:
Rat M4 = target: T1, Rat M4 (Rattus norvegicus, UniProt P08485); test: mAChR M4 cell-based functional assay (calcium flux, antagonist mode vs EC80 acetylcholine), rat M4/Gqi5/CHO-K1 cells; settings: for remaining activity at 30 µM: CHO-K1, % ACh maximum at 30 μM, rat M4, read-out: Rat M4 Emin (%); for pIC50: decrease of response elicited by EC80 acetylcholine, rat M4/Gqi5 CHO-K1 cells
T1 construct: expressed in transfected cells; host or cells: CHO-K1 (ATCC), stably co-expressing chimeric G protein Gqi5
T1 sequence (P08485 1-478): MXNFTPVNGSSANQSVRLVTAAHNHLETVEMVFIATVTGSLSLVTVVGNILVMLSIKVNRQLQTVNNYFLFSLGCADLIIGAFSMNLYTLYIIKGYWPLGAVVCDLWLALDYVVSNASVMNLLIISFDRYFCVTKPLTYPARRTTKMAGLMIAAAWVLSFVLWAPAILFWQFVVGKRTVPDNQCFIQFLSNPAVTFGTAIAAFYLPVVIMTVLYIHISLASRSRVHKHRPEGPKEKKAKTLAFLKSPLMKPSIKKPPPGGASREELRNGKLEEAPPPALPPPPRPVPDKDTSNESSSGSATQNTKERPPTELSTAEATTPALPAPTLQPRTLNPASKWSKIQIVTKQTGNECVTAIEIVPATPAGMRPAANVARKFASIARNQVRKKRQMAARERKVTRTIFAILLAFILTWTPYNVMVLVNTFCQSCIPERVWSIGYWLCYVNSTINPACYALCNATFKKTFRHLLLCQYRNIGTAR
Procedure, shortened: (§1)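 CHO-K1 cells stably expressing human or rat M4 with Gqi5, Fluo-4 loaded; calcium measured by fluorescence ratio on FDSS. Compound added, then EC20 acetylcholine at 143 s and EC80 at 268 s; IC50 from decrease of EC80 response, four-parameter logistic fit.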

Human M4 = target: T2, Human M4 (Homo sapiens, UniProt P08173); test: mAChR M4 cell-based functional assay (calcium flux, antagonist mode vs EC80 acetylcholine), human M4/Gqi5/CHO-K1 cells; settings: for remaining activity at 30 µM: CHO-K1, % ACh maximum at 30 μM, human M4, read-out: Human M4 Emin (%); for pIC50: decrease of response elicited by EC80 acetylcholine, human M4/Gqi5 CHO-K1 cells
T2 construct: expressed in transfected cells; host or cells: CHO-K1 (ATCC), stably co-expressing chimeric G protein Gqi5
T2 sequence (P08173 1-479): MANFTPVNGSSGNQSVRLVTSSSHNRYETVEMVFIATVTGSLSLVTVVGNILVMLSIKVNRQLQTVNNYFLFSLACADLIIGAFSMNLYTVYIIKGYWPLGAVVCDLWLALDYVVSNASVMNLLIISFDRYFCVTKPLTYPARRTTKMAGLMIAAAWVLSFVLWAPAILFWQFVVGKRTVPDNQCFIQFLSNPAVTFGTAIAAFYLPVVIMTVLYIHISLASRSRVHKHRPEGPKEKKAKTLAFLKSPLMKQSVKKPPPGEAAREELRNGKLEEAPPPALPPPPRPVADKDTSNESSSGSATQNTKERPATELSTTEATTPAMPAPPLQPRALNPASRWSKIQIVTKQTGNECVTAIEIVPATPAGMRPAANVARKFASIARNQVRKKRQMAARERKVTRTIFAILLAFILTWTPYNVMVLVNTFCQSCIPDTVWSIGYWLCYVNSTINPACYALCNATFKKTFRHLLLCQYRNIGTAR
Procedure, shortened: as §1

Structure (SMILES)	remaining activity at 30 µM (Rat M4) [%]	pIC50 (Rat M4)	remaining activity at 30 µM (Human M4) [%]	pIC50 (Human M4)
Cc1cccnc1CN1C[C@H]2C[C@H](Nc3ccc(S(=O)(=O)C4CCCCC4)nn3)C[C@H]2C1 [compound 43, (3aR,5s,6aS)-N-(6-(cyclohexylsulfonyl)pyridazin-3-yl)-2-((3-methylpyridin-2-yl)methyl)octahydrocyclopenta[c]pyrrol-5-amine]	11	5.90	5	7.12
Cc1cc2c(cc1CN1C[C@H]3C[C@H](Nc4ccc(S(=O)(=O)C5CCCCC5)nn4)C[C@H]3C1)OCO2 [compound 44, (3aR,5s,6aS)-N-(6-(cyclohexylsulfonyl)pyridazin-3-yl)-2-((6-methylbenzo[d][1,3]dioxol-5-yl)methyl)octahydrocyclopenta[c]pyrrol-5-amine]	6	5.69	3	6.14
Cc1cc(Br)cnc1CN1C[C@H]2C[C@H](Nc3ccc(S(=O)(=O)C4CCCCC4)nn3)C[C@H]2C1 [compound 45, (3aR,5s,6aS)-2-((5-bromo-3-methylpyridin-2-yl)methyl)-N-(6-(cyclohexylsulfonyl)pyridazin-3-yl)octahydrocyclopenta[c]pyrrol-5-amine]	3	6.53	4	7.69
O=S(=O)(c1ccc(N[C@H]2C[C@@H]3CN(CC4(O)CCOCC4)C[C@@H]3C2)nn1)C1CCCCC1 [compound 46, 4-(((3aR,5s,6aS)-5-((6-(cyclohexylsulfonyl)pyridazin-3-yl)amino)hexahydrocyclopenta[c]pyrrol-2(1H)-yl)methyl)tetrahydro-2H-pyran-4-ol]	27	< 5.00	9	5.91
O=S(=O)(c1ccc(N[C@H]2C[C@@H]3CN(Cc4ccc5[nH]ccc5c4)C[C@@H]3C2)nn1)C1CCCCC1 [compound 47, (3aR,5s,6aS)-2-((1H-indol-5-yl)methyl)-N-(6-(cyclohexylsulfonyl)pyridazin-3-yl)octahydrocyclopenta[c]pyrrol-5-amine]	9	5.80	4	6.94
O=S(=O)(c1ccc(N[C@H]2C[C@@H]3CN(Cc4ccc5cc[nH]c5c4)C[C@@H]3C2)nn1)C1CCCCC1 [compound 48, (3aR,5s,6aS)-2-((1H-indol-6-yl)methyl)-N-(6-(cyclohexylsulfonyl)pyridazin-3-yl)octahydrocyclopenta[c]pyrrol-5-amine]	9	5.34	3	6.74
CC(C)(C)CCN1C[C@H]2C[C@H](Nc3ccc(S(=O)(=O)C4CCCCC4)nn3)C[C@H]2C1 [compound 49, (3aR,5s,6aS)-N-(6-(cyclohexylsulfonyl)pyridazin-3-yl)-2-(3,3-dimethylbutyl)octahydrocyclopenta[c]pyrrol-5-amine]	4	7.20	3	8.24
CC(C)(C)CCN1C[C@H]2C[C@H](Nc3ccc(S(=O)(=O)c4ccccc4)nn3)C[C@H]2C1 [compound 50, (3aR, 5s,6aS)-2-(3,3-dimethylbutyl)-N-(6-(phenylsulfonyl)pyridazin-3-yl)octahydrocyclopenta[c]pyrrol-5-amine]	4	6.89	3	7.74
CC1(C)CC(N2C[C@H]3C[C@H](Nc4ccc(Cl)nn4)C[C@H]3C2)CCO1 (stereo partly drawn) [compound 51, (3aR,5s,6aS)-N-(6-chloropyridazin-3-yl)-2-(2,2-dimethyltetrahydro-2H-pyran-4-yl)octahydrocyclopenta[c]pyrrol-5-amine]	38	< 5.00	9	5.07
CC1(C)CC(N2C[C@H]3C[C@H](Nc4ccc(-c5ccccc5F)nn4)C[C@H]3C2)CCO1 (stereo partly drawn) [compound 52, (3aR,5s,6aS)-2-(2,2-dimethyltetrahydro-2H-pyran-4-yl)-N-(6-(2-fluorophenyl)pyridazin-3-yl)octahydrocyclopenta[c]pyrrol-5-amine]	6	6.11	3	7.92

Other lines, results leading:

remaining activity at 30 µM (Rat M4) [%]	pIC50 (Rat M4)	remaining activity at 30 µM (Human M4) [%]	pIC50 (Human M4)	Structure (SMILES)
5	6.53	3	8.03	CC1(C)CC(N2C[C@H]3C[C@H](Nc4ccc(-c5cccc(F)c5)nn4)C[C@H]3C2)CCO1 (stereo partly drawn) [compound 53, (3aR,5s,6aS)-2-(2,2-dimethyltetrahydro-2H-pyran-4-yl)-N-(6-(3-fluorophenyl)pyridazin-3-yl)octahydrocyclopenta[c]pyrrol-5-amine]
5	6.27	3	7.48	CC1(C)CC(N2C[C@H]3C[C@H](Nc4ccc(-c5ccc(F)cc5)nn4)C[C@H]3C2)CCO1 (stereo partly drawn) [compound 54, (3aR,5s,6aS)-2-(2,2-dimethyltetrahydro-2H-pyran-4-yl)-N-(6-(4-fluorophenyl)pyridazin-3-yl)octahydrocyclopenta[c]pyrrol-5-amine]
5	6.37	3	7.87	CC1(C)CC(N2C[C@H]3C[C@H](Nc4ccc(-c5cc(F)ccc5F)nn4)C[C@H]3C2)CCO1 (stereo partly drawn) [compound 55, (3aR,5s,6aS)-N-(6-(2,5-difluorophenyl)pyridazin-3-yl)-2-(2,2-dimethyltetrahydro-2H-pyran-4-yl)octahydrocyclopenta[c]pyrrol-5-amine]
14	5.14	4	7.42	CC1(C)CC(N2C[C@H]3C[C@H](Nc4ccc(-c5cccnc5)nn4)C[C@H]3C2)CCO1 (stereo partly drawn) [compound 56, (3aR,5s,6aS)-2-(2,2-dimethyltetrahydro-2H-pyran-4-yl)-N-(6-(pyridin-3-yl)pyridazin-3-yl)octahydrocyclopenta[c]pyrrol-5-amine]
9	5.69	2	7.54	Cc1cnn(C)c1-c1ccc(N[C@H]2C[C@@H]3CN(C4CCOC(C)(C)C4)C[C@@H]3C2)nn1 (stereo partly drawn) [compound 57, (3aR,5s,6aS)-N-(6-(1,4-dimethyl-1H-pyrazol-5-yl)pyridazin-3-yl)-2-(2,2-dimethyltetrahydro-2H-pyran-4-yl)octahydrocyclopenta[c]pyrrol-5-amine]
6	6.30	3	7.53	CC1(C)CC(N2C[C@H]3C[C@H](Nc4ccc(N5CCC(F)(F)CC5)nn4)C[C@H]3C2)CCO1 (stereo partly drawn) [compound 58, (3aR,5s,6aS)-N-(6-(4,4-difluoropiperidin-1-yl)pyridazin-3-yl)-2-(2,2-dimethyltetrahydro-2H-pyran-4-yl)octahydrocyclopenta[c]pyrrol-5-amine]
6	6.50	4	7.12	CC(=O)Nc1ccc(-c2ccc(N[C@H]3C[C@@H]4CN(C5CCOC(C)(C)C5)C[C@@H]4C3)nn2)cn1 (stereo partly drawn) [compound 59, N-(5-(6-(((3aR,5s,6aS)-2-(2,2-dimethyltetrahydro-2H-pyran-4-yl)octahydrocyclopenta[c]pyrrol-5-yl)amino)pyridazin-3-yl)pyridin-2-yl)acetamide]
14	5.29	5	7.31	CC1(C)CC(N2C[C@H]3C[C@H](Nc4ccc(N5CCOCC5)nn4)C[C@H]3C2)CCO1 (stereo partly drawn) [compound 60, (3aR,5s,6aS)-2-(2,2-dimethyltetrahydro-2H-pyran-4-yl)-N-(6-morpholinopyridazin-3-yl)octahydrocyclopenta[c]pyrrol-5-amine]
